{"source": "patent US5098933A", "about": "“Pharmaceutically useful Michael addition products of unsaturated aldehydes and ketones and ascorbic acid” (Theracel Corporation, priority 1990, dated 1992)", "key": {"CD-1 mice": {"tested_on": "CD-1 mice", "assay": "Immunotoxicity--Multi-dose: survival, weight, organ and histopathology assessment", "type": "in vivo", "settings": "for Organ weight, Kidney / Organ weight, Liver / Organ weight, Lung / Organ weight, Spleen / Organ weight, Tail: individual animals A, B", "protocol": "The immunotoxicological potential of KCPBL was evaluated in this experiment in which the study drug was administered to CD-1 mice for fourteen days (100 or 1000 mg/kg/day), either perorally (by gavage) or intravenously (tail vein). On the fifteenth day, the mice were weighed and sacrificed. The spleen, lungs, liver, kidneys and thymus were removed from each animal, fixed in formalin and histopathologically evaluated. In addition, a differential white blood cell count was obtained for a peripheral blood sample as well as the following tests performed: spleen cell counts (performed with Coulter Counter) and lymphocyte stimulation assays using PHA, CON-A and PWM techniques.\nCD-1 mice were obtained from Charles Rivers Laboratories. The mice were quarantined for at least one week in a separate holding room prior to use in this experiment. Five mice per treatment were used. The mice were housed in a Thoren positive pressure laminar flow Maximizer caging system with each case controlled for water and air flow. The mouse rooms are maintained on a 12-hour light/dark cycle at a constant temperature of 76° F.\nKCPBL containing approximately 50:50 ratio of the two epimers as determined by HPLC and optical rotation analysis was used in this study. An amount of drug was calculated to deliver the equivalent of 100 or 1000 mg/kg, either by the oral or intravenous route. The average weight of the mice was 29.5 grams.\n[…] Mice were administered KCPBL daily for a total of fourteen days via the oral (0.2 ml of a 147.5 mg/ml solution or a 29.5 mg/ml solution by gavage) and intravenous route (0.2 ml of 147.5 mg/ml solution or a 29.5 mg/ml solution by tail vein) to achieve a dose of 100 or 1000 mg/kg, respectively. The test dose was prepared fresh daily and dissolved in sterile non-pyrogenic saline. On the fifteenth day the mice were weighed, sacrificed, and the spleens, lungs, livers, kidneys and thymuses removed. These organs were weighed and, except for the spleens, the formalin-fixed organs were analyzed by a veterinary pathologist. Only two randomly-selected sets of animal organs per treatment group were histopathologically evaluated since the remaining three animals were used to isolate splenic lymphocytes for use in cellular immunoassays.\nA leukocyte differential was obtained on peripheral blood samples and spleen cell counts (performed with Coulter Counter), and an IL-2 induction assessment as well as standard lymphocyte stimulation assays using PHA, CON-A and PWM conducted.\nSurvival was assessed through the fifteenth day. All the surviving mice were sacrificed on the fifteenth day, predetermined organs removed, place in formalin, and subjected to for histopathologic examination by a veterinary pathologist.\nThe individual spleens of three mice from control and test groups were processed to isolate lymphocytes and the protocols for lymphocyte blastogenesis, IL-2 induction and assay were performed. The remaining two mice in each group were sacrificed and their lungs, liver, kidney, and spleen were fixed in formalin and sent to AnMed Biosafe for histopathologic examination."}, "splenocytes": {"tested_on": "splenocytes", "assay": "Immunomodulation panel: total splenocyte counts, antigen stimulated mice", "type": "in vivo, C57BL/6J mice", "protocol": "Daily intraperitoneal injections of KCPBL were administered to normal animals and immunological responsiveness to mitogens and specific antigen evaluated.\nThe test compound was weighed out immediately before use and dissolved in the injection vehicle. This solution was sterile-filtered using a 0.22 micron filter and the appropriate dose injected into mice in a 0.5 ml volume. The dose was individually calculated for each animal, based on animal weight on the first day of the experiment.\nInbred C57BL/6J mice were obtained from Jackson Laboratories, Bar Harbor, Me. The animals were held for one week before use in an experiment. Prior to commencement of a study, the animals were placed into groups and weighed.\nGroup size ten male mice per dosage group.\nDoses and schedule--Doses were selected to bracket the range generally known to be immunostimulatory in past experiments, 1, 10, and […] daily for four days.\nImmunization--All animals except for sham controls were injected with 0.5 ml of a 2% suspension of sheep erythrocyte on day zero. This occurred two days following any pretreatment and the day before the initiation of study drug administration.\nSacrifice--Animals were sacrificed by cervical dislocation on day five. […]\nAs an assessment of immunopathology in the above screening test panel, the cellularity of the spleen was evaluated by determination of the total number of splenocytes harvested. Humoral-mediated immunity was measured by enumerating IgM plaque-forming cells to the T-dependent antigen sheep erythrocytes. Cell-mediated immunity was evaluated as described above by determination of the ability of the splenocytes to produce the lymphokine interleukin-2 in response to stimulation by the mitogen concanavalin-A. Another measurement of cell-mediated immunity was the responsiveness of the splenic lymphocytes to the mitogens concanavalin-A (Con-A); phytohemagglutinin (PHA) and pokeweed mitogen (PWM) in the lymphocyte blastogenesis assay. […] The responsiveness of the cells was measured by the uptake of radiolabeled 14C-thymidine."}, "[1]": {"settings": "group 2 (1000 mg/kg P.O.), 1000 mg/kg"}, "[2]": {"settings": "group 3 (1000 mg/kg IV), 1000 mg/kg"}, "[3]": {"settings": "group 5 (100 mg/kg IV), 100 mg/kg"}}, "note": "“And” between values parts separate entries of the source, which are not always exact repeats. Equal values may be shown once. “Also recorded” adds a separate entry of the source.", "data": [{"smiles": "O=C1CCC(C2(O)C(=O)OC3C(O)COC32O)C1", "note": "(stereo not drawn) [KCPBL]", "values": [{"measurement": "PMV:Mono ratio", "setting": "CD-1 mice; 100 mg/kg IV (group 5)", "value": "10/90"}, {"measurement": "PMV:Mono ratio", "setting": "CD-1 mice; 1000 mg/kg IV (group 3)", "value": "11/89"}, {"measurement": "PMV:Mono ratio", "setting": "CD-1 mice; 1000 mg/kg P.O. (group 2)", "value": "21/79"}, {"measurement": "generalized toxicity / immunotoxic effect", "setting": "CD-1 mice; 100 or 1000 mg/kg, either route", "value": "None of the mice showed evidence of generalized toxicity; also recorded: no evidence of a immunotoxic effect"}, {"measurement": "weight loss", "setting": "CD-1 mice; 100 or 1000 mg/kg/day, 14 days, i.v. or p.o.", "value": "No clinically significant weight loss"}, {"measurement": "survival / deaths", "setting": "CD-1 mice; 14 days dosing", "value": "Except for treatment group 4 (KCPBL 100 mg/kg perorally), all animals survived to the conclusion of the trial; also recorded: In group 4, two animals were found dead on day 4 and another animal dead on day 10"}, {"measurement": "Organ weight, Kidney", "setting": "CD-1 mice; [1]", "value": "271.7 mg and 269.8 mg"}, {"measurement": "Organ weight, Liver", "setting": "CD-1 mice; [1]", "value": "1710 mg and 1780 mg"}, {"measurement": "Organ weight, Lung", "setting": "CD-1 mice; [1]", "value": "192.5 mg and 175.8 mg"}, {"measurement": "Organ weight, Spleen", "setting": "CD-1 mice; [1]", "value": "102.6 mg and 103.7 mg"}, {"measurement": "Organ weight, Tail", "setting": "CD-1 mice; [1]", "value": "236.2 mg and 229.1 mg"}, {"measurement": "Organ weight, Kidney", "setting": "CD-1 mice; [2]", "value": "287.1 mg and 225.3 mg"}, {"measurement": "Organ weight, Liver", "setting": "CD-1 mice; [2]", "value": "1760 mg and 1310 mg"}, {"measurement": "Organ weight, Lung", "setting": "CD-1 mice; [2]", "value": "209.1 mg and 177.1 mg"}, {"measurement": "Organ weight, Spleen", "setting": "CD-1 mice; [2]", "value": "110.8 mg and 75.6 mg"}, {"measurement": "Organ weight, Tail", "setting": "CD-1 mice; [2]", "value": "235.8 mg and 239.6 mg"}, {"measurement": "Organ weight, Kidney", "setting": "CD-1 mice; [3]", "value": "235.4 mg and 377.9 mg"}, {"measurement": "Organ weight, Liver", "setting": "CD-1 mice; [3]", "value": "1570 mg and 2350 mg"}, {"measurement": "Organ weight, Lung", "setting": "CD-1 mice; [3]", "value": "177.9 mg and 192.3 mg"}, {"measurement": "Organ weight, Spleen", "setting": "CD-1 mice; [3]", "value": "88.7 mg and 104.2 mg"}, {"measurement": "Organ weight, Tail", "setting": "CD-1 mice; [3]", "value": "215.1 mg and 248.2 mg"}, {"measurement": "Histopathology (lung, liver, kidney, spleen, thymus, tail)", "setting": "CD-1 mice; groups 1, 2, 3, and 5", "value": "all tissues examined were considered to be within the normal range"}, {"measurement": "WBC differentials", "setting": "CD-1 mice; peripheral blood, granulocyte and mononuclear cells", "value": "within normal limits"}, {"measurement": "organ systems (weights, histopathological assessments)", "setting": "CD-1 mice; vs sham-injected controls", "value": "within normal weight limits"}, {"measurement": "Splenocytes", "setting": "splenocytes; 1.0 mg/kg i.p.", "value": "4.34 ± 0.7 ×10^7"}, {"measurement": "Splenocytes", "setting": "splenocytes; 10 mg/kg i.p.", "value": "3.59 ± 0.8 ×10^7"}, {"measurement": "Splenocytes", "setting": "splenocytes; 100 mg/kg i.p.", "value": "3.62 ± 0.4 ×10^7"}]}]}
